According to patent US6054437A, “Method for inducing death of neoplastic cells using piperazine derivatives” (Hitachi Chemical Research Center, Inc., priority 1997, dated 2000):
Entries after “also recorded” stand apart in the source; their conditions may differ. Structures can show the parent of a compound that is named as a salt. Where two headings read alike, the source gives them in different places.

Experiments:
[1] = test system: prostate cancer cell lines; test: Cancer cell death assay (LDH release), prostate lines; type: cell-based, human; details: compound alone, 24 hours
Description: (§1) 1. Cancer Cell Death Assay
(§2) Cell death was measured quantitatively by the release of a marker intracellular enzyme, lactate dehydrogenase (LDH), from damaged or killed cells. LDH released into the extracellular fluid, was measured 24 hours after drug exposure to cancer cells and the enzyme activity was determined by the method of Decker et al. (J. Immunolog Methods 15:61-99, 1988).
(§3) All cell lines used in the present study were obtained from the American Type Tissue Culture Laboratory and cultured according to their specifications. All were human cancer lines unless otherwise noted. The following cell lines and their tissue of origin used in our studies were:
(§4) The first assays performed measured the anti-neoplastic activity of NCO-700, alone, in cell death assays of a wide variety of human cancer cells. The results of these experiments are shown in FIGS. 1-6, where a dose-response curve of NCO-700 versus % LDH release is plotted, with higher values of LDH released indicating greater anti-neoplastic activity (apoptosis).
In FIG. 8, a dose-response curve is shown of the effect of TOP-008 on the killing of breast, prostate and colon cell lines.

HL-60 (leukemia) = test: Cancer cell death assay (LDH release), leukemia line; type: cell-based, human; details: compound alone, 24 hours
Description: FIG. 4 is a graph showing the relationship between LDH released and the concentration of NCO-700 in cancer cell death assays of human cancer cell lines MCF-7 (breast), HL-60 (leukemia), and HEP-129 (liver).
as §1, §2, §3, §4

WIDR (colon) = test: Cancer cell survival assay, WIDR; type: cell-based, human; details: seven days, alone
Description: (§5) Cell survival was assayed in cultured tumor cells. From 500-1000 cells per well were plated in 24-welled culture dishes and exposed to drug for seven days. After drug exposure, a computerized cell imaging technique was utilized to ascertain the number of viable cells remaining in each culture. From the data, survival curves were plotted and a ED50 (drug concentration that permits 50% cell survival) were calculated.
(§6) The cancer cell survival assay is an important additional in vitro assay to assess the anti-neoplastic activity of compounds as the cells are given a prolonged exposure (seven days) to the drug. FIGS. 9-16 show the effect of increasing the dose of NCO-700 on the survival of a number of cancer cell lines. […] In the figures, the vertical axis is the object area, which is the number of surviving cancer cells calculated by a computer.
FIGS. 26-31 show the effect of increasing the dose of TOP-008 against a number of cancer cell lines. […] For example, if the activity of NCO-700 and TOP-008 are compared against the human colon cancer cell line WIDR (FIG. 16 in Experiment 1 versus FIG. 31) it is seen that the effective dose of TOP-008 is much lower in this particular assay.

PC-3 (prostate) = test: Cancer cell survival assay, PC-3; type: cell-based, human; details: PC-3, seven days, alone
Description: as §5, §6

LN (prostate) = test: Cancer cell survival assay, LN; type: cell-based, human; details: seven days, alone
Description: as §5, §6

KB-V-1 (resistant) = test: Cell survival assay with vinblastine, resistant cells; type: cell-based, human; details: for IC50: Homo sapiens, KB-V1
Description: where the effect of NCO-700 to enhance cancer cell killing by vinblastine was measured.
In the first two in vitro assays, the drug accumulation assay and the cell survival assay, a human pharyngeal carcinoma cell line (KB-V-1) which is highly resistant to anticancer drugs was used. This cell line was developed by Drs. Ira Pastan and Michael Gottesman of the National Cancer Institute, by step-wise selection in colchicine of drug-resistant cells. The control cancer cell line (KB-3), from which the resistant cell lines were derived, is sensitive to anticancer drugs. The resistant KB-V-1 cell line is approximately 275 times more resistant to vinblastine than the sensitive KB-3 line and has a greatly amplified mdr gene which generates the observed resistance.
The cell survival experiments shown above were performed by plating KB-3 (sensitive) and KB-V-1 (resistant) cells in 32 mm well plastic dishes at a cell density of 300-500 cells per well. Vinblastine and NCO-700 were added 16 hours after the initial cell plating. After 10 days of incubation at 37°, cell colonies were stained and counted.

KB-CH 8-5 = test: In vivo model of tumorigenicity, nude mice carrying resistant human tumor
Description: 3. In Vivo Model of Tumorigenicity
where the effect of NCO-700 in the ability of adriamycin to reduce tumor mass in drug-resistant neoplasms was measured.
For the in vivo model of tumorigenicity, cell lines developed by Pastan and Gottesman which can grow as solid tumors in nude mice were utilized. This cell line was designated KB-CH 8-5, and was a nonreverting resistant cell line. All of these cancer cell lines were generously provided by Dr. Gottesman.
In the next series of experiments, an in vivo model of tumorigenicity was utilized to examine the effect of NCO-700 on tumor mass. These experiments were performed with the cell line KB-CH-8/5, which is a cell line developed by Drs. Gottesman and Pastan, specifically for use in animals as the cells from solid tumors in vivo. Nude male mice, 5-6 weeks old and weighing between 25-30 g, were injected subcutaneously with 2-5×10^6 KB-CH-8/5 cells and treated for 14 days with 0.6 mg/kg adriamycin and with or without NCO-700 in doses ranging from 0-80 mg/kg NCO-700 per day. The data shown in FIG. 37 were obtained by weighing the well-encapsulated, excised tumor and recording the body weight of the mice.

[2] = test system: breast cancer tumor cells from patients; test: Human tumor biopsy assay (tumor cloning system), breast tumors; type: cell-based; details: 20 μM NCO-700, two breast tumors
Description: 4. Human Tumor Biopsy Assays
where the effect of NCO-700 to enhance killing, by either vinblastine or adriamycin, of cancer cells cultured directly from patient's tumors (Von Hoff et al., Cancer Res. 43:1926-1931, 1983).
For the tumor biopsy assay, primary cell cultures were propagated directly from tumor specimens removed from patients. The cells were grown in suspension culture, treated with adriamycin or vinblastine plus NCO-700, and plated onto soft agar and incubated for two weeks before cell survival was determined.
In a final series of experiments, the effect of NCO-700 on survival of cells cultured directly from biopsied patient tumors was performed. This technique, referred to as a human tumor cloning system, was developed by Von Hoff and associates (Von Hoff et al., Cancer Res. 43:1926-1931, 1983) and was used clinically to predict the course of chemotherapy for these patients. In this method, tumor biopsies were separated into cell suspensions and treated for 1 hour with either 0.4 mg/ml vinblastine (VLB) or 0.5 mg/ml adriamycin (ADR) plus or minus 20 μM NCO-700. The cell suspensions were washed after one hour of incubation and plated with soft agar. After 14 days of incubation at 37°, the percent of colonies surviving was scored. […] In particular, the survival of tumor cells decreased to approximately 1/2 to 1/3 after exposure to NCO-700 and adriamycin. […]

Q: For `CCOC(=O)[C@@H]1O[C@H]1C(=O)N[C@@H](CC(C)C)C(=O)N1CCN(Cc2ccc(OC)c(OC)c2OC)CC1` [NCO-700, Bis[ethyl (2R,3R)-3-[(S)-3-methyl-1-[4-(2,3,4-trimethoxyphenylmethyl)piperazin-1-ylcarbonyl]butylcarbamoyl]oxirane-2-carboxylate] Sulfate], which “anti-neoplastic activity (LDH release)” value [1] is on record?
A: the cell lines that were testosterone receptor negative (and more malignant) responded very well

Q: What about the “anti-neoplastic activity (LDH release)” value (HL-60 (leukemia)) of the same compound?
A: did not respond

Q: What about the “anti-neoplastic activity (cell survival)” value (WIDR (colon)) of the same compound?
A: significant anti-neoplastic activity

Q: And the “anti-neoplastic activity (cell survival)” value (PC-3 (prostate))?
A: significant anti-neoplastic activity

Q: What about the “anti-neoplastic activity (cell survival)” value (LN (prostate)) of the same compound?
A: significant anti-neoplastic activity

Q: And the IC50 (KB-V-1 (resistant); KB-V-1, + 25 μM NCO-700, read-out: vinblastine to kill 50% of cells)?
A: 0.148 µg/mL

Q: What about the IC50 (KB-V-1 (resistant); KB-V-1, + 30 μM NCO-700, read-out: level of vinblastine needed to kill 50% of the tumor cells) of the same compound?
A: 0.16 µg/mL

Q: And the “enhancement of killing of resistant cells by vinblastine” value (KB-V-1 (resistant); drug-resistant cells, with vinblastine)?
A: enhanced killing of the drug-resistant cells; also recorded: dramatic effect; also recorded: highly significant increase in the killing of these cancer cells

Q: And the “effect on tumor, alone” value (KB-CH 8-5; NCO-700 on its own)?
A: not significantly effective on its own

Q: What about the “decline of tumor mass” value (KB-CH 8-5; NCO-700 with adriamycin) of the same compound?
A: 60%

Q: And the “loss of body weight” value (KB-CH 8-5; nude mice carrying resistant human tumor)?
A: without any corresponding loss of body weight

Q: What about the “potentiation of the effect of adriamycin on tumor” value (KB-CH 8-5; with 0.6 mg/kg adriamycin, 14 days, NCO-700 0-80 mg/kg per day) of the same compound?
A: significantly potentiated the effect of adriamycin, especially at an amount of 40 mg/kg or more

Q: And the “sensitization of tumor cells to adriamycin and vinblastine” value [2]?
A: significantly sensitized these tumor cells to the actions of adriamycin (ADR) and vinblastine (VLB)
